Key:
[1] = target: Melanocyte-stimulating hormone receptor (Mus musculus, UniProt Q01727); assay: Inhibitory activity against mouse melanocortin 1 receptor
Melanocortin receptor 4 [2] = target: T1, Melanocortin receptor 4 (Homo sapiens, UniProt P32245); assay: Inhibitory activity against [125I]NDP-alpha-MSH binding to the human melanocortin 4 receptor
Melanocortin receptor 3 = Melanocortin receptor 3 (Homo sapiens, UniProt P41968); assay: Inhibitory activity against human melanocortin 3 receptor
Sequence of Melanocortin receptor 3 (P41968 whole entry): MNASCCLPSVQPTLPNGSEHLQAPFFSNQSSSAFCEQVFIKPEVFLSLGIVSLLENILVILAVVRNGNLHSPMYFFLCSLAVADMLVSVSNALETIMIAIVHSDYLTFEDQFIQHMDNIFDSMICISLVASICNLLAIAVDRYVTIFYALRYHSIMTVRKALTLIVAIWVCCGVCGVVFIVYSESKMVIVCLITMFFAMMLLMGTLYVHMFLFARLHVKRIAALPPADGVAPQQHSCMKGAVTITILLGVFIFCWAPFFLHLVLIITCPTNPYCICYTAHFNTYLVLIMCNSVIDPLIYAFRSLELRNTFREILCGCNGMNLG

Melanocortin receptor 4 [3] = target: T1, Melanocortin receptor 4; assay: Intracellular level of cAMP in cells expressing the melanocortin 4 receptor; format: functional
Melanocortin receptor 4 [4] = target: T1, Melanocortin receptor 4; assay: Percentage of maximal response with respect to alpha-MSH in cells expressing the melanocortin 4 receptor; format: functional

T1 sequence (P32245 whole entry): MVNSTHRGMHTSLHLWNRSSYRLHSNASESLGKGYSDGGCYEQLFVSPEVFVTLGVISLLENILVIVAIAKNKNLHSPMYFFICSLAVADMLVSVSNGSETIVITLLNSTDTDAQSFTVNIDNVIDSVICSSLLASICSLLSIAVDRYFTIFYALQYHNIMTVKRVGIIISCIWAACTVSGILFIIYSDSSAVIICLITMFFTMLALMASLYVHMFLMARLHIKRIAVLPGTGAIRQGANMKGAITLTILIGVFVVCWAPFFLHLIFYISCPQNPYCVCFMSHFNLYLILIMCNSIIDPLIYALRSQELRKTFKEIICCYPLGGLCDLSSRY
Sequence of Melanocyte-stimulating hormone receptor (Q01727 whole entry): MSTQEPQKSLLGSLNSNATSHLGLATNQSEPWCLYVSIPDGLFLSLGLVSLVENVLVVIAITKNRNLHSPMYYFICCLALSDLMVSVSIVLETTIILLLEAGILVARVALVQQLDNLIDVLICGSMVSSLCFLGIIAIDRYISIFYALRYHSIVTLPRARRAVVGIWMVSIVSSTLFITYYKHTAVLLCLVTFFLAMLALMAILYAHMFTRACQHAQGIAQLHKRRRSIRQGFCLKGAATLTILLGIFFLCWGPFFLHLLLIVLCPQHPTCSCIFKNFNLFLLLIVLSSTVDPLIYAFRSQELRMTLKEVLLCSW

SMILES | IC50 [1] [nM] | IC50 (Melanocortin receptor 4 [2]) [nM] | IC50 (Melanocortin receptor 3) [nM] | EC50 (Melanocortin receptor 4 [3]) [nM] | Activation (Melanocortin receptor 4 [4]) [%]
CCOC(=O)N1CCN(C(=O)C[C@H](Cc2ccc(Cl)cc2)C(=O)N2CCN(c3ccccc3N(CC3CC3)S(C)(=O)=O)CC2)CC1 | > 10000 | 1.4 | > 10000 | > 10000 | 0
CCN(C(C)=O)C(C)c1ccccc1N1CCN(C(=O)[C@H](CC(=O)NCc2ccccn2)Cc2ccc(Cl)cc2)CC1 (some centres undefined) | – | 32 | – | 37 | 95
CCN(C(C)=O)C(C)c1ccccc1N1CCN(C(=O)[C@H](CC(=O)N2CCSC2)Cc2ccc(Cl)cc2)CC1 (some centres undefined) | – | 9.4 | – | 530 | 80
CS(=O)(=O)N1CC2(CCN(C(=O)[C@@H](Cc3ccc(Cl)cc3)NC(=O)[C@H]3Cc4ccccc4CN3)CC2)c2ccccc21 | 153 | 66 | 2900 | 5.2 | 100
CC(=O)N1CCN(C(=O)C[C@H](Cc2ccc(Cl)cc2)C(=O)N2CCN(c3ccccc3N(CC3CC3)S(C)(=O)=O)CC2)CC1 | > 10000 | 11 | > 10000 | > 10000 | 0
CS(=O)(=O)N(CC1CC1)c1ccccc1N1CCN(C(=O)[C@H](CC(=O)N2CCNCC2)Cc2ccc(Cl)cc2)CC1 | > 8000 | 220 | > 8000 | 2000 | 70
CCCN1CCN(C(=O)C[C@H](Cc2ccc(Cl)cc2)C(=O)N2CCN(c3ccccc3N(CC3CC3)S(C)(=O)=O)CC2)CC1 | > 10000 | 8.9 | > 10000 | > 10000 | 0
CCN1CCN(C(=O)C[C@H](Cc2ccc(Cl)cc2)C(=O)N2CCN(c3ccccc3N(CC3CC3)S(C)(=O)=O)CC2)CC1 | – | 9.5 | – | > 10000 | 0
CS(=O)(=O)N(CC1CC1)c1ccccc1N1CCN(C(=O)[C@@H](Cc2ccc(Cl)cc2)NC(=O)C2CCNCC2)CC1 | – | 130 | – | < 0.1 | > 90
CCN(C(C)=O)C(C)c1ccccc1N1CCN(C(=O)[C@H](CC(=O)N2CCN(C(=O)OC(C)(C)C)CC2)Cc2ccc(Cl)cc2)CC1 (some centres undefined) | – | 2 | – | > 10000 | 0
CS(=O)(=O)N(CC1CC1)c1ccccc1N1CCN(C(=O)[C@H](CC(=O)N2CCN(C(=O)c3ccccc3)CC2)Cc2ccc(Cl)cc2)CC1 | – | 4.4 | – | 83 | 55
CS(=O)(=O)N(CC1CC1)c1ccccc1N1CCN(C(=O)[C@H](CC(=O)N2CCN(CC3CC3)CC2)Cc2ccc(Cl)cc2)CC1 | – | 3 | – | > 10000 | 0
CCN(C(C)=O)C(C)c1ccccc1N1CCN(C(=O)[C@H](CC(=O)N2CCC2)Cc2ccc(Cl)cc2)CC1 (some centres undefined) | > 1400 | 19 | > 10000 | 340 | 90
CC(C)(C)CC(=O)N1CCN(C(=O)C[C@H](Cc2ccc(Cl)cc2)C(=O)N2CCN(c3ccccc3N(CC3CC3)S(C)(=O)=O)CC2)CC1 | > 1800 | < 0.1 | > 10000 | 74 | 45
CC(C)(C)OC(=O)N1CCN(C(=O)C[C@H](Cc2ccc(Cl)cc2)C(=O)N2CCN(c3ccccc3N(CC3CC3)S(C)(=O)=O)CC2)CC1 | > 10000 | 3.3 | > 3500 | > 10000 | 0
CCN(C(C)=O)C(C)c1ccccc1N1CCN(C(=O)[C@H](CC(=O)NCc2ccccc2F)Cc2ccc(Cl)cc2)CC1 (some centres undefined) | > 1600 | 13 | > 10000 | 89 | 100
CCN(C(C)=O)C(C)c1ccccc1N1CCN(C(=O)[C@H](CC(=O)NC2CCC2)Cc2ccc(Cl)cc2)CC1 (some centres undefined) | > 600 | 5.8 | > 10000 | 15 | 100
CC(C)CCN1CCN(C(=O)C[C@H](Cc2ccc(Cl)cc2)C(=O)N2CCN(c3ccccc3N(CC3CC3)S(C)(=O)=O)CC2)CC1 | – | 4.8 | – | > 10000 | 0

From ChEMBL document CHEMBL1148424, “Synthesis of novel melanocortin 4 receptor agonists and antagonists containing a succinamide core” (Bioorg Med Chem Lett, 2004)
